Like-named read-outs stand apart in the source and are kept apart here.
How the values were obtained:
RelA [1] = target: T1, RelA (Homo sapiens, UniProt Q04206); experiment: DSE-FRET RelA–DNA binding inhibition; type: biochemical
Protocol: (§3) Plate-based (384 scale) DNA-binding experiments were carried out with 0.1 µL of 2 mM or 1 mg/mL compound, 2 µL of 80 nM NF-D1 (consisting of NF-01F and NF-14D), 1 µL of 20 ng/µL poly dI-dC, and 6.9 µL of 3.2 pmol protein in binding buffer (10 mM 4-(2-hydroxyethyl)-1-piperazineethanesulfonic acid (HEPES)–NaOH pH 7.9, 50 mM KCl, 0.1 mM ethylenediaminetetraacetic acid (EDTA), 2.5 mM dithiothreitol (DTT), 10% glycerol, and 0.05% Nonidet P40). The plates were incubated for 30 min at room temperature, after which 10 µL of NF-D2 (consisting of NF-02 and NF-13) was added. The plates were centrifuged at 1000 rpm for 30 s, followed by shaking for 30 s using a plate shaker (Biotec). Fluorescence was measured at 528 nm, after excitation at 485 nm, using a multiplate reader (Biotec) over a period of 60 min.

p52 [2] = target: T2, p52 (Homo sapiens, UniProt Q00653); experiment: DSE-FRET p52–DNA binding inhibition; type: biochemical
T2 sequence (Q00653 1-454 limits assumed): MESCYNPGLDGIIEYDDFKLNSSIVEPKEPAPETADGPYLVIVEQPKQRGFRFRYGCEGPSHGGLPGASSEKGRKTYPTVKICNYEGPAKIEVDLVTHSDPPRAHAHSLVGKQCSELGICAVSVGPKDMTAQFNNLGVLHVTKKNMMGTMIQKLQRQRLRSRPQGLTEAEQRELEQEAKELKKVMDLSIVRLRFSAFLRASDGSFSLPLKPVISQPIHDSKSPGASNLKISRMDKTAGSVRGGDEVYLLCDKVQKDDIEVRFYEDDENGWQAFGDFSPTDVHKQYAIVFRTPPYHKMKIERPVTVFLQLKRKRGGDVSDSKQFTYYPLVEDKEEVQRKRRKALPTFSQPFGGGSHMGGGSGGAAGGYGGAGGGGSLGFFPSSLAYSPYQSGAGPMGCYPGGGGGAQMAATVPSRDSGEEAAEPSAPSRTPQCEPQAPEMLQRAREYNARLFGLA
Protocol: as §3

cRel = target: T3, cRel (Homo sapiens, UniProt Q04864); experiment: DSE-FRET cRel–DNA binding inhibition; type: biochemical
T3 construct: GST; made in house
T3 sequence (Q04864 1-619): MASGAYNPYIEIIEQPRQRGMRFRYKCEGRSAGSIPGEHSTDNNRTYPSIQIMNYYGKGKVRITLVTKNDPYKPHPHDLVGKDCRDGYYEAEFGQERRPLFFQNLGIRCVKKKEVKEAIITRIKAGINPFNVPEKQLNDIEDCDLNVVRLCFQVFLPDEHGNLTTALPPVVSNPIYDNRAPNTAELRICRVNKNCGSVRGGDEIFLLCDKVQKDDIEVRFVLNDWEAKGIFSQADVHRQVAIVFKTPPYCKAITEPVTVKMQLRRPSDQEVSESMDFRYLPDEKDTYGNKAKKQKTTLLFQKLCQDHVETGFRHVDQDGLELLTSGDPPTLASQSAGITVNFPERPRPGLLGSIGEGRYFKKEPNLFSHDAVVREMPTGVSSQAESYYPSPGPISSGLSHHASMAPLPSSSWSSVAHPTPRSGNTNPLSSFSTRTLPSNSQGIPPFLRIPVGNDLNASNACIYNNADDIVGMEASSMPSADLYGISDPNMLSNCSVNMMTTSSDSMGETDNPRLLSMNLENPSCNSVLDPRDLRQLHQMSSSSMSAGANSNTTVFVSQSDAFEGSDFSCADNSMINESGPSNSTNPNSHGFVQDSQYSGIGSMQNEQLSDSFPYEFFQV
Protocol: as §3

[3] = system: T4, NF-κB–DNA complexes in PK8 nuclear extract; experiment: EMSA with nuclear extracts from TNF-α-treated PK8 cells; type: biochemical, human; details: TNF-α 50 ng/mL 10 min
T4 construct: nuclear extracts from tumor necrosis factor (TNF)-α-treated PK8 cells; endogenous in cells; host or cells: PK8 (human pancreatic carcinoma), TNF-α 50 ng/mL for 10 min, nuclear extract
Protocol: (§1) For EMSA using nuclear extract, PK8 cells were treated with TNF-α (50 ng/mL) for 10 min before nuclear protein extraction. The cells were washed with ice-cold phosphate-buffered saline (PBS), followed by buffer A (10 mM HEPES–NaOH, pH 7.9, 10 mM KCl, 1.5 mM MgCl2, 0.5 mM DTT, and 0.5 mM phenylmethanesulfonyl fluoride (PMSF)). After 15 min on ice, the cell suspension was centrifuged at 4 °C for 3 min at 2000 rpm, and the resultant cell pellets were resuspended in buffer A. Cells were homogenized using Dounse homogenizer type A (tight, 50 stroke) on ice. Homogenates were centrifuged at 4 °C for 10 min at 5000 rpm, and the resultant nuclear protein pellets were resuspended in buffer C (20 mM HEPES–NaOH pH 7.9, 600 mM KCl, 1.5 mM MgCl2, 25% glycerol, 0.2 mM EDTA, 0.5 mM DTT, and 0.5 mM PMSF). The nuclear proteins were incubated for 1 h on ice with intermittent tapping followed by 15 min of centrifugation at 18,000 rpm (4 °C). The supernatants were dialyzed using a Slide-A-Layzer Dialysis cassette 3500MW (Thermo: 66110) with buffer D (20 mM HEPES–NaOH pH 7.9, 100 mM KCl, 20% glycerol, 0.2 mM EDTA, 0.5 mM DTT, and 0.5 mM PMSF). The dialysis products were then aliquoted, snap-frozen, and stored at −80 °C.

[4] = system: NF-κB–DNA complexes in PK8 nuclear extract; experiment: as above; type: biochemical, human; details: 500 µM A55
Protocol: as §1

GST–RelA = GST–RelA (Homo sapiens, UniProt Q04206); experiment: SPR analysis with immobilized GST–RelA; type: binding; details: for Rmax / Kd: GST–RelA; for Kd: read-out: dissociation constant (Kd)
Sequence of GST–RelA (Q04206 19-306 limits assumed): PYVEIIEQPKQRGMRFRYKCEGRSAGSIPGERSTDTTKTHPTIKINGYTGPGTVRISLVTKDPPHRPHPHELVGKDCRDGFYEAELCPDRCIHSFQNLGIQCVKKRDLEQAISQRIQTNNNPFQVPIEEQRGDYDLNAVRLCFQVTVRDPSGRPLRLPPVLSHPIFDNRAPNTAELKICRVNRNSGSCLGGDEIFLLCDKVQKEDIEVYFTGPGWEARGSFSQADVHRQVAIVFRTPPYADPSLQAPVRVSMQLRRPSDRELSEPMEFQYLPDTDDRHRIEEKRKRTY
Protocol: (§2) SPR biosensor measurements were performed at 25 °C using a Biacore T100 instrument (GE Healthcare, Chicago, IL, USA). […] Next, 4 µg/mL GST–RelA or 5 µg/mL GST (GE Healthcare) was flowed through the channel (5 μL/min, for 180 s) and captured on the sensor chip. […] Dissociation constants were computed by fitting to a 1:1 interaction model using Biacore (GE Healthcare). Stoichiometry was calculated based on the theoretical Rmax value, where the theoretical Rmax = MWA/MWL RL SM (A, analyte; L, ligand; RL, immobilization level of ligand RU; SM, stoichiometry).

p52 [5] = target: T2, p52; experiment: EMSA with recombinant p52; type: biochemical
RelA [6] = target: T1, RelA; experiment: EMSA with recombinant RelA; type: biochemical
GST–p52 = target: T5, GST–p52 (Homo sapiens, UniProt Q00653); experiment: SPR analysis with immobilized GST–p52; type: binding
T5 sequence (Q00653 1-454 limits assumed): T2 sequence (Q00653 1-454 limits assumed)
Protocol: as §2

T1 sequence (Q04206 19-306 limits assumed): as above

In the case of `Cc1cc(O)n(CC(=O)O)c(=O)c1C(N)=O` [A55, 2-(3-carbamoyl-6-hydroxy-4-methyl-2-oxopyridin-1(2H)-yl) acetic acid], the “Hit Judgement of: RelA” value (RelA [1]; 2nd screening at 96 well plate, 1 = judged hit) is reported as 1, the “dose–response of RelA–DNA binding inhibition” value (RelA [1]; 2–10 µM) is reported as “inhibited RelA–DNA binding in a concentration-dependent manner” and the “ligand efficiency (LE)” value (RelA [1]; 16 heavy atoms) is reported as 0.44. The “RelA–DNA binding inhibition” value (RelA [1]; 96-well plate, in silico selected compounds) was “over 50%”, the “RelA–DNA binding inhibition at 50 µM” value (RelA [1]; 96-well plates, 50 µM) was “inhibited only RelA–DNA binding” and the inhibition at 50 µM (RelA [1]; 96 well plate, 50 µM, 120 min-0 min, read-out: Kinetic assay @ 50 µM RelA Inhibition % ΔRFU(120 min-0 min)) was 63%. The IC50 (RelA [1]; DSE-FRET) was 9.31 µM, the “p52–DNA binding inhibition at 50 µM” value (p52 [2]; 96-well plates, 50 µM) was “inhibited only RelA–DNA binding” and the inhibition at 50 µM (p52 [2]; 96 well plate, 50 µM, 120 min-0 min, read-out: Kinetic assay @ 50 µM p52 Inhibition % ΔRFU(120 min-0 min)) was 6.66%. The IC50 (p52 [2]; DSE-FRET) was > 100 µM, the IC50 (cRel) was > 100 µM and the “EMSA band shift, RelA–DNA complex (upper band)” value [3] was “Only the upper band disappeared”. The “EMSA band shift, other protein–DNA complexes (lower band)” value [4] was “did not affect the lower band”, the Rmax (GST–RelA; 0.625–20 µM A55) was 7.3 RU and the Kd (GST–RelA; 0.625–20 µM A55) was 2.87 µM. For the same compound, the Rmax (GST–RelA; 3.125–100 µM A55) was 4.7 RU, the Kd (GST–RelA; 3.125–100 µM A55) was 13 µM and the Rmax GST-RelA (GST–RelA; Run 1, 100 uM - […], theoretical Rmax 4.5) was 4.7 RU. The Rmax GST-RelA (GST–RelA; Run 2, 20 uM - […], theoretical Rmax 5.0) was 7.3 RU, the “EMSA inhibition of p52–DNA binding” value (p52 [5]) was “selectively inhibited the RelA–DNA binding” and the “EMSA inhibition of RelA–DNA binding” value (RelA [6]) was “selectively inhibited the RelA–DNA binding”. The Kd (GST–p52) was 1.27 µM, the Rmax (GST–p52; GST–p52, 3.125–100 µM A55) was 11.4 RU and the Rmax GST-p52 (GST–p52; Run 1, 100 uM - […], theoretical Rmax 3.4) was 11.4 RU.

Source: paper PMC7734590, “Identification of a Selective RelA Inhibitor Based on DSE-FRET Screening Methods” (International Journal of Molecular Sciences, 2020)
